Test results published in PMC13052075, “Synthesis of 1,2,3,4‐Tetrahydroisoquinoline‐3‐Carboxylic Acid‐Embedded Decapeptides: In Silico Studies and In Vitro Evaluation Against Breast Cancer” (ChemistryOpen, 2025).
Non-standard residues stand in square brackets, D forms with d. Residues, ends and D or L forms follow the SMILES beside them. Tic = O=C(O)[C@@H]1Cc2ccccc2CN1

Test system: MCF‐7 human breast cancer cell line
Assay: cells
Details: for IC50: 24 h
Experimental: Using GraphPad Prism software, the IC50 values were determined (Figure 8). After conducting the MTT assay, the absorbance data was entered into the software to generate dose–response curves. The nonlinear regression analysis function, specifically log(inhibitor) verus normalized response was employed to calculate the IC50 values for each compound. This method allowed for accurate determination of the concentration required to inhibit 50% of cell viability.
The MTT assay (3‐[4,5‐dimethylthiazol‐2‐yl]‐2,5‐diphenyltetrazolium bromide) was employed to evaluate the anticancer potential of the synthesized compounds against the MCF‐7 human breast cancer cell line. MCF‐7 cells were seeded into a 96‐well plate at a density of 1 × 10^4 cells per well and allowed to adhere for 24 h. Subsequently, the cells were treated with the test compounds at concentrations of 0.1, 1, 2, 5, and 10 µM, prepared in plain Dulbecco's Modified Eagle Medium (DMEM) media. After 24 h of incubation, MTT solution (100 µg per well; Sigma‐Aldrich) was added, and the plates were incubated for an additional 3–4 h to allow the formation of formazan crystals. The resulting formazan was dissolved in DMSO, and absorbance was measured at 570 nm using a microplate reader.

`CC(C)C[C@H](NC(=O)[C@H](Cc1c[nH]c2ccccc12)NC(=O)[C@H](CO)NC(=O)[C@H](CCC(=O)O)NC(=O)[C@@H]1Cc2ccccc2CN1C(=O)[C@H](Cc1c[nH]cn1)NC(=O)[C@H](CCCCN)NC(=O)[C@H](CCCNC(=N)N)NC(=O)[C@H](CS)NC(=O)[C@@H](N)CCCCN)C(=O)O` [DEC‐3] (H-KCRKH[Tic]ESWL-OH) was tested, and the IC50 was 4.49 µM.

`CC/C(=C(\c1ccccc1)c1ccc(OCCN(C)C)cc1)c1ccccc1` [Tamoxifen, tamoxifen] showed an inhibition at 0.1 µM (Homo sapiens, MCF7, 24 h, read-out: % Inhibition 0.1 µM) of 14.1 ± 5.41%, an inhibition at 1 µM (Homo sapiens, MCF7, 24 h, read-out: % Inhibition 1 µM) of 29.6 ± 10.4% and an inhibition at 2 µM (Homo sapiens, MCF7, 24 h, read-out: % Inhibition 2 µM) of 38.2 ± 2.76%. The inhibition at 5 µM (Homo sapiens, MCF7, 24 h, read-out: % Inhibition 5 µM) was 57.2 ± 5.99% and the inhibition at 10 µM (Homo sapiens, MCF7, 24 h, read-out: % Inhibition 10 µM) was 92.21 ± 0.73%.

`CC(C)C[C@H](NC(=O)[C@H](Cc1c[nH]c2ccccc12)NC(=O)[C@H](CO)NC(=O)[C@H](CCC(=O)O)NC(=O)[C@@H]1Cc2ccccc2CN1C(=O)[C@H](Cc1c[nH]cn1)NC(=O)[C@H](CCCNC(=N)N)NC(=O)[C@H](CCCCN)NC(=O)[C@H](CS)NC(=O)[C@@H](N)CCCNC(=N)N)C(=O)O` [DEC‐2] (H-RCKRH[Tic]ESWL-OH) was tested, and the IC50 was 6.1 µM.

Work on `CC(C)C[C@H](NC(=O)[C@H](Cc1c[nH]c2ccccc12)NC(=O)[C@H](CO)NC(=O)[C@H](CCC(=O)O)NC(=O)[C@@H]1Cc2ccccc2CN1C(=O)[C@H](CCCCN)NC(=O)[C@H](Cc1c[nH]cn1)NC(=O)[C@H](CCCNC(=N)N)NC(=O)CNC(=O)[C@@H](N)Cc1c[nH]cn1)C(=O)O` [DEC‐1] (H-HGRHK[Tic]ESWL-OH) yielded an IC50 of 3.38 µM.
